GI50 and TGI data for 8 compounds are collected here from PubChem BioAssay (NCI).

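Five compound concentrations were applied to cells in 96-well plates for 48 hours; endpoints were derived by simple linear interpolation of the resulting dose-response curve. At the GI50, growth is halved. At the TGI there is no net growth.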 A value given as a limit tells only on which side of the number the result lay.

What all share (assay): growth of human tumour cells (NCI), 48 h
Assay [1] concerns COLO 205 colon.
Assay [2] concerns HCT-15 colon.
For assay [3], the system named is HL-60(TB) leukemia.
The subject of assay [4] is IGROV1 ovarian.
For assay [5], the system named is NCI-H522 lung.
Assay [6] relates to SF-268 CNS.
In assay [7] the test system is SK-MEL-28 melanoma.
Assay [8] has as its system SK-MEL-5 melanoma.
Assay [9] concerns T-47D breast.
Assay [10] has as its system UO-31 renal.

For `CN1CCN(c2ccc(Nc3nc(N)c(C(=O)c4ccc5c(c4)OCCO5)s3)cc2)CC1`, the GI50 in assay [1] is 2.27 µM; in assay [2], 4.08 µM; in assay [3] it was 4.62 µM; in [4] it was 2.27 µM; in assay [5] it was 4.32 µM; in [6], 3.84 µM. The GI50 in [7] was 4.6 µM; in [8] it was 3.52 µM; in assay [9] it was 3.69 µM; in assay [10], 2.6 µM. Further, the TGI was 7.35 µM in assay [1]; above 25 µM in [2]; 11.6 µM in assay [3]; 9.27 µM in assay [4]; 9.84 µM in [5]; 10.5 µM in assay [6]. The TGI in [7] came out at 10.5 µM; in assay [8], 8.88 µM; in [9], 9.7 µM; in assay [10], 8.02 µM.
On to `O=Cc1ccc(-c2ccc(-c3nc4ccccc4o3)cc2)s1`, for which the GI50 in [1] was 32.1 µM; in [2], 34.2 µM; in assay [3], 12.7 µM; in assay [4] it was 30.1 µM; in assay [5], 47.3 µM; in assay [6], 28.4 µM. In addition, the GI50 in [7] is 24.1 µM; in assay [8], 21.8 µM; in assay [9] it was 22.6 µM; in [10], 38.5 µM. The TGI is above 100 µM in [1]; above 100 µM in assay [2]; above 100 µM in assay [3]; above 100 µM in [4]; above 100 µM in assay [5]; 81.5 µM in [6]. The TGI was above 100 µM in [7], 45.2 µM in assay [8], above 100 µM in assay [9] and above 100 µM in assay [10].
In the case of `C[C@@H]1Cc2c([nH]c3ccccc23)[C@@H](c2c(F)cc(NC3CN(CCCF)C3)cc2F)N1CC(F)(F)CO`, the GI50 is 2.35 µM in [1]; 3.5 µM in assay [2]; 4.9 µM in assay [3]; 2.77 µM in [4]; 4.16 µM in assay [5]; 4.78 µM in [6]. Besides, the GI50 in [7] is 2.45 µM; in assay [8] it was 1.92 µM; in assay [9] it was 1.06 µM; in assay [10], 3.7 µM. The TGI in [1] amounted to 5.71 µM; in [2], 12.7 µM; in assay [3], 22.5 µM; in [4], 10.8 µM; in assay [5], 16.7 µM; in [6], 19.5 µM. Besides, the TGI in assay [7] was found to be 6.49 µM; in [8], 3.68 µM; in [9], 18.5 µM; in [10], 16.5 µM.
As for `C=C1c2[nH]c3ccccc3c2C2C(CC)C1CCN2C` (stereo not given), the TGI was 58.9 µM in assay [1]; above 100 µM in assay [2]; above 100 µM in [3]; above 100 µM in assay [4]; above 100 µM in [5]; above 100 µM in assay [6]. Further, the TGI in assay [7] is 77.2 µM; in assay [8], above 100 µM; in [9], above 100 µM; in [10] it was above 100 µM.
`COC1=CC(=O)C(OC)=C(OC)C1=O`: the GI50 was 15.1 µM in [1]; 16.2 µM in assay [2]; 2.92 µM in assay [3]; 19.7 µM in [4]; 3.21 µM in assay [5]; 17.1 µM in assay [6]. In addition, the GI50 in [7] was 28.3 µM; in assay [8], 16.2 µM; in assay [9], 10.3 µM; in assay [10], 13 µM. The TGI in [1] came out at 29 µM; in assay [2] it was 33.7 µM; in assay [3], 8.73 µM; in assay [4] it was 37.6 µM; in assay [5], 17.4 µM; in [6], 30.9 µM. Besides, the TGI in assay [7] came out at 94.1 µM; in assay [8] it was 30.2 µM; in assay [9], 32.2 µM; in [10], 26.3 µM.
Consider `CC(=O)O[C@@H]1[C@@H](O)C2=C3[C@]4(C)[C@@H]1C(C)(C)C(=O)C[C@@H]4[C@]3(O)[C@H](OC(C)=O)[C@@]1(C[C@@H]1C)C2=O`, for which the TGI in [1] is 34.2 µM; in assay [2] it was 31.5 µM; in [3] it was 49.1 µM; in assay [4], 30.9 µM; in assay [5] it was 19.2 µM; in assay [6], 81.7 µM. The TGI in [7] was 37.1 µM; in assay [8] it was 48.8 µM; in assay [9], 36 µM; in assay [10] it was 33.9 µM.
For `Nc1ccccc1NC(=O)c1ccc(CCCC(=O)Nc2ccc(C3CC3N)cc2)cc1` (stereo not given), the GI50 was 0.765 µM in [1]; 18.8 µM in assay [2]; 0.725 µM in assay [3]; 4.24 µM in [4]; 0.673 µM in assay [5]; 1.83 µM in assay [6]. The GI50 in assay [7] is 1.31 µM; in [8], 0.716 µM; in assay [9] it was 0.562 µM; in assay [10] it was 4.62 µM. Moreover, the TGI in assay [1] is 2.89 µM; in assay [2], above 100 µM; in [3] it was 65.2 µM; in assay [4], above 100 µM; in [5], 5.12 µM; in [6] it was 23 µM. The TGI in assay [7] was 11.3 µM; in assay [8], 2.21 µM; in assay [9] it was above 100 µM; in assay [10] it was 20.6 µM.
Consider `Cc1[nH]c2ccccc2c1-c1cc(-c2cc(-c3c(C)[nH]c4ccccc34)nc(N)n2)nc(N)n1`, for which the TGI in assay [1], in [2], in assay [3], in assay [4], in assay [5] and in assay [6] was above 100 µM throughout. The TGI in [7], in [8], in assay [9] and in assay [10] was above 100 µM in each case.
